Assay results reported in patent publication US6710168B1, “Glycopeptide antibiotics, combinatorial libraries of glycopeptide antibiotics and methods of producing same” (The Trustees of the University of Princeton, priority 1999, dated 2004).
Converted amounts (≈) assume the structure as drawn.

Assays:
Assay type in all cases: cell-based
[1] = test system: Bacillus cereus (ATCC 11778); experiment: MIC susceptibility test, microdilution with MTT readout; settings: for MIC: Bacillus cereus, ATCC11778, read-out: MIC BC; for MIC BC: Bacillus ceres ATCC11778
Outline: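 Bacillus cereus ATCC® 11778 susceptibility was measured by broth microdilution in 96-well microplates using Cation Adjusted Mueller-Hinton broth. Samples were diluted two-fold from 5 μg/mL over 12 steps. Each well combined 100 μL of cell suspension (10^6 CFU/mL) with 100 μL of antibiotic solution and was incubated at 37° C. for 24 h. Then 50 μL of MTT (1 mg/mL) was added for 30 min, and MIC (μg/mL) was read as the lowest concentration inhibiting growth.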

[2] = test system: Enterococcus faecalis (ATCC 29212); experiment: as above; settings: Enterococcus faecalis ATCC29212; for MIC: read-out: MIC EF
Outline: (§1)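 Broth microdilution in cation-adjusted Mueller-Hinton broth, 12-step two-fold series from 5 μg/mL to […], mixed 1:1 with 10^6 CFU/mL cell suspension and incubated 24 h at 37 °C. MTT (1 mg/mL solution) is then added for 30 min (S. aureus, MRSA) or 2 h (E. faecalis strains). MIC = lowest concentration inhibiting growth.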

[3] = test system: Methicillin resistant Staphylococcus aureus (ATCC 33591); experiment: as above; settings: Staphylococcus aureus ATCC3359, Methicillin resistance; for MIC: ATCC 3359 / ATCC 33591 / MRSA, read-out: MIC MRSA
Outline: as §1

[4] = test system: Staphylococcus aureus (ATCC 29213); experiment: as above; settings: Staphylococcus aureus ATCC29213; for MIC: read-out: MIC SA
Outline: as §1

[5] = test system: gentamicin, streptmycin, vancomycin resistant Enterococcus faecalis (ATCC 51299); experiment: microbe, parasite or virus in culture; settings: for MIC: Enterococcus faecalis, ATCC51299, read-out: MIC VREF; for MIC VREF: Enterococcus faecalis ATCC51299, vancomycin resistance
Outline: as §1

[6] = test system: Enterococcus faecium CL5137, VanA; experiment: MIC susceptibility test; settings: Enterococcus faecium CL5137, VanA; for MIC: read-out: MIC CL5137
[7] = test system: Enterococcus faecalis CL5244, VanB; experiment: MIC susceptibility test; settings: Enterococcus faecalis CL5244, VanB; for MIC: read-out: MIC CL5244
Outline: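 MTT-based broth microdilution in cation-adjusted Mueller-Hinton broth; two-fold 12-step dilutions […], inoculum 10^6 CFU/mL, 37° C for 24 h.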

SMILES	MIC [1] [µg/mL]	MIC [2] [µg/mL]	MIC [3] [µg/mL]	MIC [4] [µg/mL]	MIC [5] [µg/mL]	MIC [6] [µg/mL]	MIC [7] [µg/mL]	MIC BC [1] [µg/mL]	MIC EF [2] [µg/mL]	MIC MRSA [3] [µg/mL]	MIC SA [4] [µg/mL]	MIC VREF [5] [µg/mL]	MIC CL5137 [6]	MIC CL5244 [7] [µg/mL]
CN[C@@H](CC(C)C)C(=O)N[C@H]1C(=O)N[C@@H](CC(N)=O)C(=O)N[C@H]2C(=O)NC3C(=O)N[C@H](C(=O)N[C@@H](C(=O)O)c4cc(O)cc(O)c4-c4cc3ccc4O)[C@H](O)c3ccc(c(Cl)c3)Oc3cc2cc(c3OC2OC(CSc3nnc(N)s3)C(O)C(O)C2OC2CC(C)(NCc3ccc(-c4ccc(Cl)cc4)cc3)C(O)C(C)O2)Oc2ccc(cc2Cl)[C@H]1O (stereo partly drawn) [LXXXIII, N-4-(4-Chlorophenyl)benzylvancosamine-glucose-C6-2-thio-5-amino-1,3,4-thiadiazole Vancomycin]	0.32 (≈ 0.181 µM)	0.16 (≈ 0.0906 µM)	0.48 (≈ 0.272 µM)	0.48 (≈ 0.272 µM)	0.32 (≈ 0.181 µM)	3.2 (≈ 1.81 µM)	0.2 (≈ 0.113 µM)	–	–	–	–	–	–	–
CCCCCCCCCCNC1(C)CC(OC2C(Oc3c4cc5cc3Oc3ccc(cc3Cl)[C@@H](O)[C@@H](NC(=O)[C@H](CC(C)C)NC)C(=O)N[C@@H](CC(N)=O)C(=O)N[C@H]5C(=O)NC3C(=O)N[C@H](C(=O)N[C@@H](C(=O)O)c5cc(O)cc(O)c5-c5cc3ccc5O)[C@H](O)c3ccc(c(Cl)c3)O4)OC(CSc3nc(-c4ccccc4)c(-c4ccccc4)o3)C(O)C2O)OC(C)C1O (stereo partly drawn) [LXXXII, N-Decylvancosamine-glucose-C6-2-thio-4,5-diphenyloxazole Vancomycin]	> 5	> 5	> 5	> 5	> 5	> 50	13 (≈ 7.12 µM)	–	–	–	–	–	–	–
CN[C@@H](CC(C)C)C(=O)N[C@H]1C(=O)N[C@@H](CC(N)=O)C(=O)N[C@H]2C(=O)NC3C(=O)N[C@H](C(=O)N[C@@H](C(=O)O)c4cc(O)cc(O)c4-c4cc3ccc4O)[C@H](O)c3ccc(c(Cl)c3)Oc3cc2cc(c3OC2OC(CN)C(O)C(O)C2OC2CC(C)(NCc3ccc(-c4ccc(Cl)cc4)cc3)C(O)C(C)O2)Oc2ccc(cc2Cl)[C@H]1O (stereo partly drawn) [LXXV, N-4-(4-Chlorophenyl)benzylvancosamine-glucose-C6-amine Vancomycin]	0.16 (≈ 0.097 µM)	≤ 0.03	≤ 0.03	≤ 0.03	0.63 (≈ 0.382 µM)	2 (≈ 1.21 µM)	≤ 0.03	–	–	–	–	–	–	–
CN[C@@H](CC(C)C)C(=O)N[C@H]1C(=O)N[C@@H](CC(N)=O)C(=O)N[C@H]2C(=O)NC3C(=O)N[C@H](C(=O)N[C@@H](C(=O)O)c4cc(O)cc(O)c4-c4cc3ccc4O)[C@H](O)c3ccc(c(Cl)c3)Oc3cc2cc(c3OC2OC(CSc3nccc(C(F)(F)F)n3)C(O)C(O)C2OC2CC(C)(N)C(O)C(C)O2)Oc2ccc(cc2Cl)[C@H]1O (stereo partly drawn) [LX]	5 (≈ 3.1 µM)	2.5 (≈ 1.55 µM)	5 (≈ 3.1 µM)	5 (≈ 3.1 µM)	2.5 (≈ 1.55 µM)	> 50	> 50	–	–	–	–	–	–	–
CNC(CC(C)C)C(=O)NC1C(=O)NC(CC(N)=O)C(=O)NC2C(=O)NC3C(=O)NC(C(=O)NC(C(=O)O)c4cc(O)cc(O)c4-c4cc3ccc4O)C(O)c3ccc(c(Cl)c3)Oc3cc2cc(c3OC2OC(CNCc3ccc(-c4ccc(Cl)cc4)cc3)C(O)C(O)C2OC2CC(C)(N)C(O)C(C)O2)Oc2ccc(cc2Cl)C1O (stereo not drawn) [XXIX, Glucose-C6-N-4-(4-chlorophenyl)benzyl Vancomycin]	–	–	–	–	–	–	–	0.63 (≈ 0.382 µM)	0.63 (≈ 0.382 µM)	0.63 (≈ 0.382 µM)	0.63 (≈ 0.382 µM)	0.63 (≈ 0.382 µM)	50 µg/mL (≈ 30.3 µM)	0.6 (≈ 0.364 µM)
CCCCCCCCCCNC1(C)CC(OC2C(Oc3c4cc5cc3Oc3ccc(cc3Cl)[C@@H](O)[C@@H](NC(=O)[C@H](CC(C)C)NC)C(=O)N[C@@H](CC(N)=O)C(=O)N[C@H]5C(=O)NC3C(=O)N[C@H](C(=O)N[C@@H](C(=O)O)c5cc(O)cc(O)c5-c5cc3ccc5O)[C@H](O)c3ccc(c(Cl)c3)O4)OC(CSc3nnc(C)c(O)n3)C(O)C2O)OC(C)C1O (stereo partly drawn) [LXXIX, N-Decylvancosamine-glucose-C6-2-thio-6-azathymine Vancomycin]	0.63 (≈ 0.367 µM)	0.32 (≈ 0.187 µM)	1.3 (≈ 0.758 µM)	2.5 (≈ 1.46 µM)	0.63 (≈ 0.367 µM)	25 (≈ 14.6 µM)	0.6 (≈ 0.35 µM)	–	–	–	–	–	–	–
CN[C@@H](CC(C)C)C(=O)N[C@H]1C(=O)N[C@@H](CC(N)=O)C(=O)N[C@H]2C(=O)NC3C(=O)N[C@H](C(=O)N[C@@H](C(=O)O)c4cc(O)cc(O)c4-c4cc3ccc4O)[C@H](O)c3ccc(c(Cl)c3)Oc3cc2cc(c3OC2OC(CNCc3cc(Cl)ccc3O)C(O)C(O)C2OC2CC(C)(N)C(O)C(C)O2)Oc2ccc(cc2Cl)[C@H]1O (stereo partly drawn) [XXXIX, Glucose-C6-5-chloro-2-hydroxy-benzylamine Vancomycin]	1.3 (≈ 0.818 µM)	2.5 (≈ 1.57 µM)	1.3 (≈ 0.818 µM)	1.3 (≈ 0.818 µM)	> 5	> 50	25 (≈ 15.7 µM)	–	–	–	–	–	–	–
CNC(CC(C)C)C(=O)NC1C(=O)NC(CC(N)=O)C(=O)NC2C(=O)NC3C(=O)NC(C(=O)NC(C(=O)O)c4cc(O)cc(O)c4-c4cc3ccc4O)C(O)c3ccc(c(Cl)c3)Oc3cc2cc(c3OC2OC(CN)C(O)C(O)C2OC2CC(C)(N)C(O)C(C)O2)Oc2ccc(cc2Cl)C1O (stereo not drawn) [XLVII, Glucose-C6-amine Vancomycin]	–	–	–	–	–	–	–	1.0 (≈ 0.69 µM)	1.9 (≈ 1.31 µM)	0.32 (≈ 0.221 µM)	0.63 (≈ 0.435 µM)	1 (≈ 0.69 µM)	50< μg/mL	25 (≈ 17.3 µM)
CN[C@@H](CC(C)C)C(=O)N[C@H]1C(=O)N[C@@H](CC(N)=O)C(=O)N[C@H]2C(=O)NC3C(=O)N[C@H](C(=O)N[C@@H](C(=O)O)c4cc(O)cc(O)c4-c4cc3ccc4O)[C@H](O)c3ccc(c(Cl)c3)Oc3cc2cc(c3OC2OC(CSc3nc4cc(Cl)ccc4s3)C(O)C(O)C2OC2CC(C)(N)C(O)C(C)O2)Oc2ccc(cc2Cl)[C@H]1O (stereo partly drawn) [LXVI, Glucose-C6-2-thio-5-chlorobenzothiazole Vancomycin]	0.16 (≈ 0.098 µM)	0.24 (≈ 0.147 µM)	1.3 (≈ 0.796 µM)	0.63 (≈ 0.386 µM)	0.32 (≈ 0.196 µM)	50 (≈ 30.6 µM)	0.4 (≈ 0.245 µM)	–	–	–	–	–	–	–
CN[C@@H](CC(C)C)C(=O)N[C@H]1C(=O)N[C@@H](CC(N)=O)C(=O)N[C@H]2C(=O)NC3C(=O)N[C@H](C(=O)N[C@@H](C(=O)O)c4cc(O)cc(O)c4-c4cc3ccc4O)[C@H](O)c3ccc(c(Cl)c3)Oc3cc2cc(c3OC2OC(CSc3nccc(N)n3)C(O)C(O)C2OC2CC(C)(N)C(O)C(C)O2)Oc2ccc(cc2Cl)[C@H]1O (stereo partly drawn) [LXI, Glucose-C6-2-thio-4-aminopyrimidine Vancomycin]	0.63 (≈ 0.404 µM)	0.63 (≈ 0.404 µM)	1.3 (≈ 0.834 µM)	0.63 (≈ 0.404 µM)	0.63 (≈ 0.404 µM)	> 50	3.2 (≈ 2.05 µM)	–	–	–	–	–	–	–
CN[C@@H](CC(C)C)C(=O)N[C@H]1C(=O)N[C@@H](CC(N)=O)C(=O)N[C@H]2C(=O)NC3C(=O)N[C@H](C(=O)N[C@@H](C(=O)O)c4cc(O)cc(O)c4-c4cc3ccc4O)[C@H](O)c3ccc(c(Cl)c3)Oc3cc2cc(c3OC2OC(CSc3nnnn3-c3ccc(O)cc3)C(O)C(O)C2OC2CC(C)(N)C(O)C(C)O2)Oc2ccc(cc2Cl)[C@H]1O (stereo partly drawn) [LXVIII, Glucose-C6-5-thio-1-(4-hydroxyphenyl)-1H-tetrazole Vancomycin]	1.3 (≈ 0.8 µM)	2.5 (≈ 1.54 µM)	2.5 (≈ 1.54 µM)	2.5 (≈ 1.54 µM)	> 5	> 50	13 (≈ 8 µM)	–	–	–	–	–	–	–
CN[C@@H](CC(C)C)C(=O)N[C@H]1C(=O)N[C@@H](CC(N)=O)C(=O)N[C@H]2C(=O)NC3C(=O)N[C@H](C(=O)N[C@@H](C(=O)O)c4cc(O)cc(O)c4-c4cc3ccc4O)[C@H](O)c3ccc(c(Cl)c3)Oc3cc2cc(c3OC2OC(CSc3nnnn3C)C(O)C(O)C2OC2CC(C)(N)C(O)C(C)O2)Oc2ccc(cc2Cl)[C@H]1O (stereo partly drawn) [LVIII, Glucose-C6-5-thio-1-methyl-tetrazole Vancomycin]	1.3 (≈ 0.84 µM)	2.5 (≈ 1.62 µM)	2.5 (≈ 1.62 µM)	1.9 (≈ 1.23 µM)	5 (≈ 3.23 µM)	> 50	50 (≈ 32.3 µM)	–	–	–	–	–	–	–
